Data on three molecules can be found in patent US5872118A, “Bicyclic amide derivatives and their use as muscle relaxants” (Glaxo Wellcome Inc., priority 1993, dated 1999).

Where two headings read alike, the source gives them in different places. Bounds are passed on as bounds.

Data set [1] deals with carrageenan-induced cell accumulation and edema formation within the rat pleural cavity. As to the kind of experiment: carrageenan pleurisy assay (anti-inflammatory activity). In kind it is in vivo, rat (Lewis male). To be noted: po, fasted rats, 0.5 hr before carrageenan, 4 hr. The protocol: The rats used in these experiments were Lewis males, weighing 160-180 g, assigned to groups consisting of 5 animals. Test compounds were given to fasted rats by oral gavage 0.5 hr prior to intrapleural injection of 50 mg carrageenan. After 4 hr, the pleural exudate was collected and the edema volume and cell number were determined. ED50 values were estimated by linear regression analysis, and represent the doses at which a given drug produced 50% inhibition of carrageenan-induced cell accumulation and edema formation within the rat pleural cavity.

The test system of data set [2] is morphine-induced Straub tail. As to the kind of experiment: Straub tail test (central muscle relaxant activity). The data set is classed as in vivo. To be noted: Mus musculus, 1 h; mice, oral gavage 60 min prior to scoring; dose preventing Straub tail in 50% of mice; read-out: Straub Tail p.o. ED50. The protocol: Central muscle relaxant activity of compounds of formula (I) was determined using a Straub tail test based on that described by K. O. Ellis and J. F. Carpenter, Neuropharrnacol, 13, 211 (1974).
The Straub tail test result is reported as an ED50 in mg/kg. The ED50 is defined as the dose of compound administered, which prevents Straub tail in 50% of mice. The compound is administered by oral gavage 60 min. prior to scoring.
(§1) Antagonism of morphine-induced Straub tail reflects central muscle relaxant efficacy while failure in the rotorod test reflects sedation and incoordination. Determination of the ratio of rotorod failure to antagonism of morphine-induced Straub tail is a means of assessing side effect liability of central muscle relaxants (G. D. Novak, Drug Dev. Res., 2, 383 (1982).

Data set [3] can be described thus: single dose oral toxicity. The settings on record: mouse, in vivo; single oral gavage, non-fasted male CD-1 mice, seven days; read-out: maximum tolerated dose. In kind it is in vivo, male CD-1 mice. The protocol:
(§2) Single doses (15, 45, 100 or 250 mg/kg) were administered by oral gavage to groups of four non-fasted male CD-1 mice (Charles River).
(§3) Single doses (5, 15, 40, 100, 250, 500 or 1000 mg/kg) were administered by oral gavage to groups of four non-fasted male CD-1 mice (Charles River).

The test system of a further data set is CD-1 mice. The data set is described as follows: single dose oral toxicity. In kind it is in vivo, male CD-1 mice. To be noted: within the seven days post dosing, single oral gavage, male CD-1 mice. The protocol: as §2, §3
Data set [4] can be described thus: mouse rotorod test (sedation and incoordination). To be noted: in vivo, po; for selectivity ratio: ratio of rotorod ED50 to Straub tail ED50, p.o. The protocol:
The side effect potential of these compounds was determined using the mouse rotorod test as described by G. D. Novak and J. M. Zwolshei, J.Pharmacological. Methods, 10, 175 (1983). Rotorod result is reported as ED50 in mg/kg. The ED50 is the dose which causes 50% of the animals to fail to maintain position on a cylinder rotating at 11 r.p.m.
as §1

The test system of data set [5] is established adjuvant-induced polyarthritis. The data set is described as follows: established adjuvant-induced polyarthritis. The data set is classed as in vivo, rat (female Lewis). The settings on record: 50 mg/kg b.i.d. The protocol: The procedures for this test have been described in detail by R. Vinegar, J. F. Truax, J. L. Selph, A. Lea, and P. R. Johnston (J. Immunopharmacol. 1:497-520, 1979). The rats used in these studies were female Lewis rats whose starting weight was 190±10 g. Arthritic rats were assigned to treatment groups consisting of six animals each. Fed rats were dosed by oral gavage starting on day 21 post adjuvant injection; therapy was continued until day 28. The incidence and severity of arthritic lesions were assessed using a modification of the scoring procedure described by H. L. F. Currey and M. Ziff (J. Exp. Med. 121:185-203, 1968). Briefly, the bilateral joints were scored for erythema, edema, and ankylosis as outlined below:
The maximal possible score per rat was 40. Experimental results were analyzed by one-way ANOVA, followed by post hoc comparisons of treatment effects versus untreated arthritic control using the Newman-Keuls test. The percent inhibition of each drug-treated group was calculated from the mean relative to the arthritic control.

In data set [6] the test system is trypsin-induced rat hind limb hyperalgesia. As to the kind of experiment: trypsin-induced rat hind limb hyperalgesia assay (mild analgesia). The data set is classed as in vivo, rat (Lewis male). The settings on record: po, fasted rats, 0.5 hours prior to trypsin, 50% inhibition of latency response. The protocol: The rats used in these studies were Lewis male, weighing 160-180 g. and assigned to groups consisting of 5-6 animals. Test compounds were given to fasted rats by oral gavage 0.5 hours prior to the subplantar injection of […] trypsin in one hind limb. One hour later the rats were evaluated for hyperalgesia using an F-shaped mechanical force clamp on the injected hind limb metatarsal area. Latency (seconds) to the algesic response (vocalization or flight) was determined, with 4 seconds being the maximum latency allowed. ED50 values were estimated by linear regression analysis and represent the dose at which a given drug extended the latency response to produce 50% inhibition using the formula: (4 sec.-Control Latency)-(4 sec.-Test Latency)/4 sec.-Control Latency×100.

Data set [7] concerns algesic response to mechanical force clamp on the phalanges. The data set is described as follows: phalanges algesic assay (strong analgesia). In kind it is in vivo, rat (Lewis male). To be noted: Rattus norvegicus, po, 1 h; p.o., fasted rats, one hour after dosing; 50% inhibition of latency response. The protocol: The rats used in these studies were Lewis male weighing 160-180 g and assigned to groups of 5-6 animals. The phalanges algesic assay is an algesic test (no hyperalgesia) in which test compounds were given to fasted rats by oral gavage. One hour later an F-shaped mechanical force clamp was applied to the phalanges of one hind limb which initiated an algesic response(vocalization or flight). Latency (seconds) to the algesic response was determined with 3 seconds maximum allowed time. ED50 values were estimated by linear regression analysis and represent the dose at which a given compound extended the latency response to produce 50% inhibition using the formula: (3 sec.-Control Latency)-(3 sec.-Test Latency)/3 sec.-Control Latency×100.

The subject of another data set is punished responding. As to the kind of experiment: anxiolytic activity, punished responding (Geller and Seifter). The data set is classed as in vivo. To be noted: Rattus norvegicus, po; rats, p.o.; lowest dose producing significant increase in punished responding; read-out: MED (Minimal Effective Dose). The protocol: Anxiolytic activity of compounds of formula (I) was measured using the method of Geller and Seifter, J.Psychopharmacolgia, 1, 482 (1960) as modified by Pollard and Howard, Psychopharmacology, 62, 117 (1979). Clinically efficacious anxiolytics increase punished responding. The anxiolytic activity of the compound is reported as the lowest dose necessary to produce a significant increase in punished responding in rats(MED).

Data set [8] relates to maximal electroshock-induced convulsions. The data set is described as follows: protection against maximal electroshock-induced convulsions. The data set is classed as in vivo. To be noted: ip; rat, i.p.; prevention of hind limb extension in 50% of animals; read-out: ED50 MES (maximal electroshock). The protocol:
Anticonvulsant activity of compounds of formula (I) was determined using a method described by Mehta et al., J.Med.Chem., 24, 465 (1981).
The anticonvulsant activity is reported as an ED50 in mg/kg. The ED50 for protection against maximal electroshock-induced convulsions was the dose which prevented hind limb extension in 50% of the animals. The ED50 for protection against Metrazol-induced convulsions was the dose which prevented convulsions in 50% of the animals.
A general note: In the maximal electroshock model the usual endpoint is tonic extension of the hind limbs.

Setting [9] is: 50% inhibition of cell accumulation, read-out: ED50 Cells.
[10] abbreviates: 50% inhibition of edema formation, read-out: ED50 Edema.

A word on the ED50: it is the dose that gives a 50% effect, or the effect in half of the subjects. What is called TD50 is the dose at which the toxic effect under study appears in half of the subjects. Regarding `NC(=O)/C=C1\CCc2ccc(F)cc21` [Example 1, (E)-2-(6-Fluoro-1-indanylidene)acetamide], the ED50 in data set [1] (setting [9]) was found to be 21 mg/kg; in [1] (setting [10]), 20 mg/kg; in [2], 51 mg/kg. Moreover, the MTD at 168 h in data set [3] was > 250 mg/kg. In addition, the deaths entry in the data set with CD-1 mice is “no deaths”. The same molecule came in with a TD50 in data set [4] of 88 mg/kg. In addition, the selectivity ratio in data set [4] stood at 1.7.
In the case of `NC(=O)/C=C1\CCc2c(F)cc(F)cc21` [Example 5, (E)-2-(4,6-difluoro-1-indanylidene)acetamide], the ED50 turned out to be 16 mg/kg in [1] (setting [9]); 12 mg/kg in data set [1] (setting [10]); 54 mg/kg in data set [2]; 4 mg/kg in [6]; 22 mg/kg in data set [7]. Further, in data set [5] (days 22, 25, and 27, oral gavage), the arthritic scores result was “significantly (p<0.01) lowered”. In data set [5] (postmortem on day 27), the Spleen weight entry is “significantly reduced (p<0.01)”. Further, the plasma fibrinogen entry in [5] (postmortem on day 27) is “significantly reduced (p<0.01)”. Further, the MTD at 168 h in [3] was > 1000 mg/kg. For the same molecule, in the data set with CD-1 mice, the deaths result is “no deaths”. The molecule further registered a TD50 in [4] of 79 mg/kg. Moreover, the selectivity ratio in [4] is 1.5.
Usually minimal effective dose stands for the smallest amount tested that counted as effective. Regarding `O=C(/C=C1\CCCc2ccc(F)cc21)NC1CC1` [Example 13, (E)-N-Cyclopropyl-2-(7-fluoro-1,2,3,4-tetrahydro-1-naphthylidene)acetamide], the minimal effective dose in the data set on punished responding is 3.13 mg/kg. Besides, the ED50 in data set [8] was determined as 25 mg/kg.
